In patent publication US11629171B2, “Beta-hairpin peptidomimetics” (POLYPHOR AG, priority 2017, dated 2023):
In brackets after ≈: the same amount, converted by molar mass. Like-named read-outs stand apart in the source and are kept apart here. Where a SMILES comes first, the peptide text is derived from it. Bridges are numbered along the chain shown (N, C = ends). Roman numbers before positions name the chains, in order. [ ]: non-standard residue; d: D form. The star is where a group is joined. Tyrosinol = OC[C@H](Cc1ccc(O)cc1)N*; Thr(ol) = C[C@@H](O)[C@H](N)CO; pGlu = O=C1CC[C@@H](C(=O)O)N1; Tle = CC(C)(C)[C@H](N)C(=O)O; Hiv = CC(C)[C@H](O)C(=O)O; dDab = NCC[C@@H](N)C(=O)O; hSer = N[C@@H](CCO)C(=O)O; Orn = NCCC[C@H](N)C(=O)O; Dab = NCC[C@H](N)C(=O)O; Nva = CCC[C@H](N)C(=O)O; Dap = NC[C@H](N)C(=O)O

How the values were obtained:
Assay type in all cases: cell-based
[1] = test system: Acinetobacter baumannii 872842
Summary of the method: (§1)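 CLSI broth microdilution: inoculum ~10^6 CFU/mL in cation-adjusted Mueller-Hinton II broth, with peptide in serial two-fold dilutions plus Polysorbate 80 (0.002% final). MIC (μg/mL) is the lowest concentration without visible growth after 18-20 hours at 35° C.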

[2] = test system: Acinetobacter baumannii DSM 30008
Summary of the method: as §1

[3] = test system: Enterobacter cloacae 848840
Summary of the method: as §1

Escherichia coli 926415 = test system: Escherichia coli 926415
Summary of the method: as §1

[4] = test system: Escherichia coli ATCC 25922
Summary of the method: as §1

[5] = test system: Klebsiella pneumoniae 968733
Summary of the method: as §1

[6] = test system: Klebsiella pneumoniae SSI #3010
Summary of the method: as §1

[7] = test system: Pseudomonas aeruginosa ATCC 27853
Summary of the method: as §1

[8] = test system: human red blood cells (hRBC); test: Hemolysis
Summary of the method: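 Read-out is supernatant absorbance at 540 nm, normalised to full lysis by 2% Triton X-100 and zero lysis by PBS with 10% water. Peptides (200 μg/mL) were exposed to 20% v/v washed human erythrocytes at 37° C for 1 h under shaking.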

SMILES | MIC ([1]; Acinetobacter baumannii 872842 clinical isolate, Mueller-Hinton II broth) | MIC ([2]; Acinetobacter baumannii DSM 30008, Mueller-Hinton II broth) | MIC ([3]; Enterobacter cloacae 848840 clinical isolate, Mueller-Hinton II broth) | MIC (Escherichia coli 926415; Escherichia coli 926415 clinical isolate, Mueller-Hinton II broth) | MIC ([4]; Escherichia coli ATCC 25922, Mueller-Hinton II broth) | MIC ([5]; Klebsiella pneumoniae 968733 clinical isolate, Mueller-Hinton II broth) | MIC ([6]; Klebsiella pneumoniae SSI #3010, Mueller-Hinton II broth) | MIC ([7]; Pseudomonas aeruginosa ATCC 27853, Mueller-Hinton II broth) | Hemolysis at 200 μg/mL ([8]; 200 μg/mL, human red blood cells) | MIC [1]; 872842 | MIC ([2]; DSM 30008) | MIC [3]; 848840 | MIC (Escherichia coli 926415; 926415) | MIC ([4]; ATCC 25922) | MIC [5]; 968733 | MIC ([6]; SSI #3010) | MIC ([7]; ATCC 27853) | Hemolysis at 200 μg/mL ([8]; red cells of human, 1 h, 200)
CC(=O)N[C@H](C(=O)N[C@H]1CSSC[C@@H](C(=O)N[C@H](CO)Cc2ccc(O)cc2)NC(=O)[C@H](C(C)(C)C)NC(=O)[C@H](CO)NC(=O)[C@H](Cc2c[nH]c3ccccc23)NC(=O)[C@H](CCO)NC(=O)[C@@H](CCN)NC(=O)[C@H](CCC(=O)N[C@@H](CCN)C(=O)N[C@H](C(=O)N[C@@H](CCN)C(=O)N[C@H]2CCNC(=O)[C@H]([C@@H](C)O)NC(=O)[C@H](CCN)NC(=O)[C@H](CCN)NC(=O)[C@H](CC(C)C)NC(=O)[C@@H](CC(C)C)NC(=O)[C@H](CCN)NC2=O)[C@@H](C)O)NC(=O)[C@H](CCN)NC(=O)[C@H](CO)NC1=O)C(C)C [Ex. 94] (I: Ac-VCS[Dab]E[dDab][hSer]WS[Tle]C-Tyrosinol / II: [Dab]T[Dab][Dab][Dab][dL]L[Dab][Dab]T; disulfide I:2-I:11; amide I:5-II:N; lactam II:4-II:C) | 0.25 µg/mL (≈ 0.103 µM) | 0.125 µg/mL (≈ 0.0515 µM) | 1 µg/mL (≈ 0.412 µM) | 0.25 µg/mL (≈ 0.103 µM) | 0.0625 µg/mL (≈ 0.0257 µM) | 0.25 µg/mL (≈ 0.103 µM) | 0.0625 µg/mL (≈ 0.0257 µM) | 0.25 µg/mL (≈ 0.103 µM) | <1% |  |  |  |  |  |  |  |  | 
CC(C)C[C@@H]1NC(=O)[C@@H](CC(C)C)NC(=O)[C@H](CCN)NC(=O)[C@@H](NC(=O)[C@H](CCN)NC(=O)[C@@H](NC(=O)[C@H](CCN)NC(=O)CC[C@@H]2NC(=O)[C@H](CCN)NC(=O)[C@H](Cc3ccc(O)cc3)NC(=O)[C@@H](NC(=O)[C@@H]3CCC(=O)N3)CSSC[C@@H](C(=O)N[C@H](CO)[C@@H](C)O)NC(=O)[C@H](C(C)(C)C)NC(=O)[C@H](CO)NC(=O)[C@H](Cc3c[nH]c4ccccc34)NC(=O)[C@H](CCO)NC(=O)[C@@H](CCN)NC2=O)[C@@H](C)O)CCNC(=O)[C@H]([C@@H](C)O)NC(=O)[C@H](CCN)NC(=O)[C@H](CCN)NC1=O [Ex. 77] (I: [pGlu]CY[Dab]E[dDab][hSer]WS[Tle]C[Thr(ol)] / II: [Dab]T[Dab][Dab][Dab][dL]L[Dab][Dab]T; disulfide I:2-I:11; amide I:5-II:N; lactam II:4-II:C) |  |  |  |  |  |  |  |  |  | 0.25 µg/mL (≈ 0.104 µM) | 0.125 µg/mL (≈ 0.0518 µM) | 0.25 µg/mL (≈ 0.104 µM) | 0.25 µg/mL (≈ 0.104 µM) | 0.125 µg/mL (≈ 0.0518 µM) | 0.25 µg/mL (≈ 0.104 µM) | 0.125 µg/mL (≈ 0.0518 µM) | 0.125 µg/mL (≈ 0.0518 µM) | <1%
CCC[C@@H]1NC(=O)[C@H](CO)NC(=O)[C@H](Cc2c[nH]c3ccccc23)NC(=O)[C@H](CCN)NC(=O)[C@@H](CCN)NC(=O)[C@H](CCC(=O)N[C@@H](CCN)C(=O)N[C@H](C(=O)N[C@@H](CN)C(=O)N[C@H]2CCNC(=O)[C@H]([C@@H](C)O)NC(=O)[C@H](CCN)NC(=O)[C@H](CCN)NC(=O)[C@H](CC(C)C)NC(=O)[C@@H](CC(C)C)NC(=O)[C@H](CCN)NC2=O)[C@@H](C)O)NC(=O)[C@H](CO)NC(=O)[C@H](Cc2ccc(O)cc2)NC(=O)[C@@H](NC(=O)[C@@H](NC(C)=O)C(C)C)CSSC[C@@H](C(=O)N[C@@H](CO)C(N)=O)NC1=O [Ex. 264] (I: Ac-VCYSE[dDab][Dab]WS[Nva]CS-NH2 / II: [Dab]T[Dap][Dab][Dab][dL]L[Dab][Dab]T; disulfide I:2-I:11; amide I:5-II:N; lactam II:4-II:C) |  |  |  |  |  |  |  |  |  | 0.0625 µg/mL (≈ 0.0261 µM) | 0.0625 µg/mL (≈ 0.0261 µM) | 0.5 µg/mL (≈ 0.208 µM) | 0.125 µg/mL (≈ 0.0521 µM) | 0.03125 µg/mL (≈ 0.013 µM) | 0.125 µg/mL (≈ 0.0521 µM) | 0.125 µg/mL (≈ 0.0521 µM) | 0.25 µg/mL (≈ 0.104 µM) | <1%
CC(C)C[C@@H]1NC(=O)[C@@H](CC(C)C)NC(=O)[C@H](CCN)NC(=O)[C@@H](NC(=O)[C@H](CN)NC(=O)[C@@H](NC(=O)[C@H](CCN)NC(=O)CC[C@@H]2NC(=O)[C@H](CO)NC(=O)[C@H](Cc3ccc(O)cc3)NC(=O)[C@@H](NC(=O)[C@@H](O)C(C)C)CCCNC(=O)[C@@H]([C@H](C)O)NC(=O)[C@H](C(C)(C)C)NC(=O)[C@H](CO)NC(=O)[C@H](Cc3c[nH]c4ccccc34)NC(=O)[C@H](CCO)NC(=O)[C@@H](CCN)NC2=O)[C@@H](C)O)CCNC(=O)[C@H]([C@@H](C)O)NC(=O)[C@H](CCN)NC(=O)[C@H](CCN)NC1=O [Ex. 24] (I: H-[Hiv][Orn]YSE[dDab][hSer]WS[Tle][dT] / II: [Dab]T[Dap][Dab][Dab][dL]L[Dab][Dab]T; lactam I:2-I:C, II:4-II:C; amide I:5-II:N) |  |  |  |  |  |  |  |  |  | 1 µg/mL (≈ 0.439 µM) | 0.125 µg/mL (≈ 0.0548 µM) | 0.25 µg/mL (≈ 0.11 µM) | 2 µg/mL (≈ 0.877 µM) | 0.125 µg/mL (≈ 0.0548 µM) | 0.5 µg/mL (≈ 0.219 µM) | 0.125 µg/mL (≈ 0.0548 µM) | 0.25 µg/mL (≈ 0.11 µM) | <1%
